Laboratory results from US6277872A, “Oxadiazoles, processes for their preparation and their use as medicaments” (Boehringer Ingelheim KG, priority 1996, dated 2001).

How the values were obtained:
[1] = test system: AMPA receptor; assay: Inhibition of the cainate-induced signal at the AMPA receptor, electrophysiology on neuronal cells (Patch-Clamp-Method); type: cell-based; conditions: test concentration of 100 μM
Description: The tests were carried out at a test concentration of 100 μM.

[2] = test system: Sigma receptor; assay: Sigma receptor binding study; conditions: test concentration typically 10 μM
Description: (§1) The tests were typically carried out at a test concentration of 10 μM.

[3] = test system: "Na+ channel site 2"-binding site; assay: Binding to the Na+ channel site 2 binding site ([3H]-BTX); conditions: test concentration typically 10 μM
Description: as §1

[4] = target: T1, Histamine H1 receptor (Cavia porcellus, UniProt P31389); assay: Histamine H1 receptor binding study; conditions: test concentration typically 10 μM; read-out: H1 Inh. [%]
T1 construct: from tissue
T1 sequence (P31389 whole entry): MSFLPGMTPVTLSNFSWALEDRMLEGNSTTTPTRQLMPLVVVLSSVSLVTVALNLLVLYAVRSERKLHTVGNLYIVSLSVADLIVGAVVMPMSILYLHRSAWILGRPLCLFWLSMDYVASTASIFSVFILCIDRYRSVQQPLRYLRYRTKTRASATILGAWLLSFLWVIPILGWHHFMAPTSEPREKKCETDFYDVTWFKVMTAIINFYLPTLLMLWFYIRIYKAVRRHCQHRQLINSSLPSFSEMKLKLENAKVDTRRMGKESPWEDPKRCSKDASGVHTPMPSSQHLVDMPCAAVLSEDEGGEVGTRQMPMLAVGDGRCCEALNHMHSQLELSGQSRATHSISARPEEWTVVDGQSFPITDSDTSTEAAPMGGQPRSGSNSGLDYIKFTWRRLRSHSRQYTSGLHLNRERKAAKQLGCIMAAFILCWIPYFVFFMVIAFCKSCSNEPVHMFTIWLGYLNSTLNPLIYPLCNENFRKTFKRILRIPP
Excerpt: Table 5 summarises the inhibitory values on the above receptors:

Compound	Sigma Inh. [%] [2]	Na+-channel Inh. [%] ([3H]-BTX) [3]	inhibition at 10 µM [4]	AMPA Inh. [%] (inhibiting the cainate-induced signal at the AMPA receptor) [1]
CN(C)CCOc1ccccc1-c1noc(-c2ccccc2)n1 [Example 3, 3-{2-[2-(N,N-Dimethylamino)ethyl]oxy-phenyl}-5-phenyl-1,2,4-oxadiazole]	62%	91%	98%	96%
c1ccc(-c2noc(-c3ccccc3OCCN3CCOCC3)n2)cc1 [Example 4, 5-{2-[2-(Morpholino)ethyl]oxy-phenyl}-3-phenyl-1,2,4-oxadiazole]	41%	79%	44%	71%
CN1CCN(CCOc2ccccc2-c2nc(-c3ccccc3)no2)CC1 [Example 5, 5-{2-[2-(4-methylpiperazin-1-yl)ethyl]oxy-phenyl}-3-phenyl-1,2,4-oxadiazole]	90%	78%	74%	84%
CN(C)CCOc1ccccc1-c1nc(-c2ccc(O)cc2)no1 [Example 8, 5-{2-[2-(N,N-Dimethylamino)ethyl]oxy-phenyl}-3-(4-hydroxyphenyl)-1,2,4-oxadiazole]	59%	87%	94%	97%
CCN(CC)CCOc1ccccc1-c1nc(-c2ccccc2)no1 [Example 12, 5-{2-[2-(N,N-Diethylamino)ethyl]-oxy-phenyl}-3-phenyl-1,2,4-oxadiazole]	68%	90%	87%	85%
c1ccc(-c2noc(-c3ccccc3OCCN3CCCC3)n2)cc1 [Example 13, 5-{2-[2-(N-Pyrrolidinyl)ethyl]oxy-phenyl}-3-phenyl-1,2,4-oxadiazole]	83%	95%	91%	96%
c1ccc(-c2noc(-c3ccccc3OCCN3CCCCC3)n2)cc1 [Example 14, 5-{2-[2-(N-Piperidinyl)ethyl]oxy-phenyl}-3-phenyl-1,2,4-oxadiazole]	93%	100%	87%	96%
Cc1ccc(-c2noc(-c3ccccc3OCCN(C)C)n2)cc1 [Example 17, 5-{2-[2-(N,N-Dimethylamino)-ethyl]oxy-phenyl}-3-(4-methyl-phenyl)-1,2,4-oxadiazole]	65%	80%	78%	97%
CN(C)CCOc1ccccc1-c1nc(-c2ccc(Cl)cc2)no1 [Example 18, 5-{2-[2-(N,N-Dimethylamino)-ethyl]oxy-phenyl}-3-(4-chlor-phenyl)-1,2,4-oxadiazole]	80%	85%	94%	80%
COc1ccc(-c2noc(-c3ccccc3OCCN(C)C)n2)cc1 [Example 19, 5-{2-[2-(N,N-Dimethylamino)-ethyl]oxy-phenyl}-3-(4-methoxy-phenyl)-1,2,4-oxadiazole]	74%	83%	95%	86%
c1ccc(CNCCOc2ccccc2-c2nc(-c3ccccc3)no2)cc1 [Example 20, 5-{2-[2-(N-benzylamino)ethyl]-oxy-phenyl}-3-phenyl-1,2,4-oxadiazole]	84%	100%	19%	90%
CC(C)NCCOc1ccccc1-c1nc(-c2ccccc2)no1 [Example 21, 5-{2-[2-(N-Isopropylamino)ethyl]-oxy-phenyl}-3-phenyl-1,2,4-oxadiazole]	76%	100%	75%	98%
CN(C)CCOc1ccccc1-c1nc(C2CC2)no1 [Example 55, 5-{2-[2-(N,N-Dimethylamino)-ethyl]oxy-phenyl}-3-cyclopropyl-1,2,4-oxadiazole]	–	–	–	81%

Second part, led by results:

Sigma Inh. [%] [2]	Na+-channel Inh. [%] ([3H]-BTX) [3]	inhibition at 10 µM [4]	Compound	AMPA Inh. [%] (inhibiting the cainate-induced signal at the AMPA receptor) [1]
78%	94%	64%	CNCCOc1ccccc1-c1nc(-c2ccccc2)no1 [Example 22, 5-{2-[2-(N-methylamino)ethyl]-oxy-phenyl}-3-phenyl-1,2,4-oxadiazole]	94%
79%	99%	63%	CCNCCOc1ccccc1-c1nc(-c2ccccc2)no1 [Example 23, 5-{2-[2-(N-ethylamino)ethyl]-oxy-phenyl}-3-phenyl-1,2,4-oxadiazole]	93%
52%	89%	27%	NCCOc1ccccc1-c1nc(-c2ccccc2)no1 [Example 24, 5-[2-(2-aminoethyl)oxy-phenyl]-3-phenyl-1,2,4-oxadiazole]	96%
84%	79%	90%	CN(C)CCOc1ccccc1-c1nc(-c2ccccc2Cl)no1 [Example 27, 5-{2-[2-(N,N-Dimethylamino)-ethyl]oxy-phenyl}-3-(2-chloro-phenyl)-1,2,4-oxadiazole]	91%
84%	91%	92%	CN(C)CCOc1ccccc1-c1nc(-c2ccc(Cl)cc2Cl)no1 [Example 28, 5-{2-[2-(N,N-Dimethylamino)-ethyl]oxy-phenyl}-3-(2,4-dichloro-phenyl)-1,2,4-oxadiazole]	87%
77%	82%	94%	CN(C)CCOc1ccccc1-c1nc(Cc2ccccc2)no1 [Example 31, 5-{2-[2-(N,N-Dimethylamino)-ethyl]oxy-phenyl}-3-benzyl-1,2,4-oxadiazole]	23%
77%	84%	87%	Cc1ccccc1-c1noc(-c2ccccc2OCCN(C)C)n1 [Example 33]	87%
75%	88%	96%	CN(C)CCOc1ccccc1-c1nc(-c2ccccc2F)no1 [Example 34]	97%
82%	93%	93%	Cc1cccc(-c2noc(-c3ccccc3OCCN(C)C)n2)c1 [Example 37, 5-{2-[2-(N,N-Dimethylamino)-ethyl]oxy-phenyl}-3-(3-methyl-phenyl)-1,2,4-oxadiazole]	93%
76%	88%	99%	CN1CCN(c2ccccc2-c2nc(-c3ccccc3)no2)CC1 [Example 40, 5-[2-(4-methylpiperazin-1yl)-phenyl]-3-phenyl-1,2,4-oxadiazole]	37%
57%	89%	94%	CN(C)CCOc1ccccc1-c1nc(-c2cccs2)no1 [Example 42, 5-{2-[2-(N,N-Dimethylamino)-ethyl]oxy-phenyl}-3-(2-thienyl)-1,2,4-oxadiazole]	79%
0%	72%	86%	CN(C)CCOc1ccccc1-c1nc(-c2ccccn2)no1 [Example 43, 5-{2-[2-(N,N-Dimethylamino)-ethyl]oxy-phenyl}-3-(2-pyridyl)-1,2,4-oxadiazole]	77%
93%	89%	74%	CN(C)CCOc1ccccc1-c1nc(-c2cccc(C(F)(F)F)c2)no1 [Example 44, 5-{2-[2-(N,N-Dimethylamino)-ethyl]oxy-phenyl}-3-(3-rifluoromethylphenyl)-1,2,4-oxadiazole]	62%
85%	79%	98%	CN(C)CCOc1ccccc1-c1nc(-c2ccc(F)cc2)no1 [Example 45, 5-{2-[2-(N,N-Dimethylamino)-ethyl]oxy-phenyl}-3-(4-fluoro-phenyl)-1,2,4-oxadiazole]	64%
56%	74%	82%	CN(C)CCOc1ccccc1-c1nc(-c2ccc(N)cc2)no1 [Example 47, 5-{2-[2-(N,N-Dimethylamino)-ethyl]oxy-phenyl}-3-(4-amino-phenyl)-1,2,4-oxadiazole]	59%
68%	62%	95%	CN(C)CCOc1ccccc1-c1nc(-c2ccsc2)no1 [Example 54, 5-{2-[2-(N,N-Dimethylamino)-ethyl]oxy-phenyl}-3-(3-thienyl)-1,2,4-oxadiazole]	–
